Assay results reported in patent publication US20060079453A1, “Hla binding peptides and their uses” (priority 2002, published 2006).
Several values for one entry are separate records, joined by “and”; a condition that tells them apart may be missing. Equal entries are not always repeated. Where two headings read alike, the source gives them in different places. No end group written: not given here.

Legend:
HLA-A*0101 = HLA-A*0101 (Homo sapiens, UniProt P04439, A114D/A174V/A182V/D101N/D185E/E176A/E190D/L180R/Q94H/R68K/S129P/T187R/V100A/V91M/W191G); assay: biochemical; type: binding; details: Binding affinity to A*0101 (expressed as an IC50)
HLA-A*2902 = HLA-A*2902 (Homo sapiens, UniProt P04439, A270S/D101N/D185E/E176V/E277Q/E87Q/F33T/G231S/H175R/I121M/I218V/I322F/K168Q/L300P/L318F/M331R/P208A/P217A/Q86L/T323A/T345S/V100A/V358M); assay: MHC molecular binding / Capture assay, IC50: A*2902
HLA-A*3002 = HLA-A*3002 (Homo sapiens, UniProt P04439, D101N/D140H/D185E/E176R/F33S/G80R/H175R/K168Q/Q94H/R138E/R41S/V100E); assay: biochemical; type: binding
[1] = Binding affinity to A*2902 (expressed as an IC50)
[2] = Binding affinity to A*3002 (expressed as an IC50)

Row | Sequence | IC50 (HLA-A*0101) | IC50 (HLA-A*2902) | IC50 (HLA-A*3002) | IC50 (HLA-A*2902; [1]) | IC50 (HLA-A*3002; [2])
1 | ITKILYQSNPY | > 10100 nM | 64900 nM | – | – | –
2 | KTDQRSEVY | 84 nM and 41 nM | 200000 nM | 1170 nM | – | –
3 | KTRYYDYSVY | 2960 nM | 87800 nM | 0.71 nM | – | –
4 | KYDYYDYSVY | 186000 nM | 5750 nM | 11 nM | – | –
5 | LIENELMNY | 412 nM | – | – | 3940 nM | –
6 | LSLDGPGPGY | 266 nM | – | – | 274 nM | –
7 | LTDIEITCVY | 12 nM and 33 nM | 540 nM | 80 nM | – | –
8 | LTDLRLSCVY | 45 nM | 1780 nM | 613 nM | – | –
9 | LTEYVLDLY | 6 nM and 8 nM | 941 nM | 81 nM | – | –
10 | QNADKNFLY | 3810 nM | – | – | 24 nM | 663 nM
11 | QTEQATSNY | 14 nM | 119000 nM | 3250 nM | – | –
12 | QTEQATSNYY | 11 nM | 9580 nM | 500 nM | – | –
13 | RTAKQHTCY | 5650 nM | 130000 nM | 346 nM | – | –
14 | RTDILDLWVY | 85 nM | 13400 nM | 360 nM | – | –
15 | RTETPTLQDY | 11 nM and 40 nM | 1990 nM | – | – | –
16 | STVKHHMY | 8130 nM | 1760 nM | 68 nM | – | –
17 | TLEKGPGPGLY | 13 nM | – | – | 2040 nM | 40 nM
18 | TLEKLGPGPGY | 269 nM | – | – | 4470 nM | 1960 nM
19 | TLGPGPGTGLY | 350 nM | – | – | 1320 nM | 7.4 nM
20 | VSSIFISFY | 144 nM | – | – | 1800 nM | 55 nM
21 | YSDIRELRHY | 14 nM | 1140 nM | 740 nM | – | –
22 | YSDISEYRHY | 3.8 nM | 1350 nM | – | – | –
23 | YSDVRKYRYY | 19 nM | 849 nM | 794 nM | – | –
24 | YSDVSEFRWY | 3.9 nM | 1840 nM | – | – | –
25 | YTDGPGIRY | 11 nM | 562 nM | 7910 nM | – | –
26 | YTKVSEFRWY | 276 nM and 204 nM | 3310 nM | 420 nM | – | –
